Laboratory results from patent US6117841A, “Substituted peptidylamine calcium channel blockers” (Warner-Lambert Company, priority 1999, dated 2000).
Like-named read-outs stand apart in the source and are kept apart here.

Target: T1, N-type Ca^2+ Channel (Homo sapiens, UniProt Q00975)
T1 construct: host or cells: IMR-32 cells differentiated with dibutyryl cAMP and bromodeoxyuridine
Experiment: Measurement of N-type Ca2+ channel blocking potencies in IMR-32 cells using the fluorescent Ca2+ indicator Indo-1
Format: cell-based
Conditions: IMR-32 cells
Protocol: Measurement of N-type Ca^2+ Channel Blocking Potencies of Compounds in IMR-32 Cells Using the Fluorescent Ca^2 + Indicator Indo-1
IMR-32 cells are a human tumoral cell line of neural origin. […] Calcium flux into these cells may be induced by stimulation with elevated potassium concentrations. The L-channel component of calcium flux may be blocked by adding 5 μM nitrendipine. The remaining component of calcium entry into the IMR-32 cells is due to calcium flux through N-type calcium channels. Intracellular calcium concentrations are measured using the fluorescent calcium indicator Indo-1. The effect of drug concentration on calcium uptake is studied.
The IMR-32 cell line was obtained from the American Type Culture Collection (Rockville, Md.). Cells were grown in Eagle's Minimum Essential Medium with Earle's salts supplemented with 10% fetal bovine serum, 2 mM L-Gln and antibiotic/antimycotic mixture (Gibco). At approximately 80% confluency, differentiation was induced by the addition of 1 mM dibutyryl cAMP and 2.5 μM bromodeoxyuridine to the medium. After 7 to 13 days of differentiation, cells were detached using 0.5 mM EDTA and loaded with 5 μM Indo-1 acetoxymethyl ester (Molecular Probes, Eugene, Oreg.) at 30° C. for 45 minutes. Loaded cells were washed twice, resuspended (~10^7 cells/mL) in assay buffer (10 mM HEPES/Tris pH 7.4 in Hank's Balanced Salt Solution without bicarbonate or phenol red containing 0.5% bovine serum albumin) and kept on ice until use. Fluorescence measurements were carried out in a Photon Technology International (PTI, South Brunswick, N.J.) Model RF-F3004 spectrofluorometer with dual emission monochromators using excitation at 350 nm and emission at 400 and 490 nm. The instrument was equipped with a thermostated cuvette holder with stirring capabilities as well as with a computer-controlled pump which allowed for reagent addition during measurement. Instrument control and data collection was done by PTI's OSCAR software running on an IBM compatible computer. Different concentrations of the test compounds (60 μL in dimethyl sulfoxide) were added to 5.94 mL of assay buffer containing approximately 3×10^6 loaded cells, and 5 μM nitrendipine (in 30 μL EtOH) to block L-type Ca^2+ channels. Samples were incubated for 10 minutes at 30° C. and then aliquoted into three 10×10 mm disposable acrylic cuvettes. Emission signals at 400 and 490 nm were acquired from each cuvette at 30° C. for 50 seconds. At 20 seconds after the start of reading, cells were depolarized by the addition of 160 μL of stimulation solution (1 M KCl, 68 mM CaCl2) to the cuvette via the computer-controlled pump. Ratio of dual emission signals (400 nm/ 490 nm), which is proportional to intracellular Ca^2+ concentration, was plotted against time, and the difference between maximal response after stimulation and basal value (before stimulation) was determined. Values obtained in this way were plotted as a function of drug concentration. IC50 values of test compounds were calculated by fitting a four-parameter logistic function to the data using the least squares method.

[1] = K+ depolarization, 5 μM nitrendipine to block L-type channels, read-out: IMR 32 IC50
[2] = 5 μM nitrendipine, Examples 116-140, read-out: IMR 32% of Blockade @

T1 sequence (Q00975 whole entry): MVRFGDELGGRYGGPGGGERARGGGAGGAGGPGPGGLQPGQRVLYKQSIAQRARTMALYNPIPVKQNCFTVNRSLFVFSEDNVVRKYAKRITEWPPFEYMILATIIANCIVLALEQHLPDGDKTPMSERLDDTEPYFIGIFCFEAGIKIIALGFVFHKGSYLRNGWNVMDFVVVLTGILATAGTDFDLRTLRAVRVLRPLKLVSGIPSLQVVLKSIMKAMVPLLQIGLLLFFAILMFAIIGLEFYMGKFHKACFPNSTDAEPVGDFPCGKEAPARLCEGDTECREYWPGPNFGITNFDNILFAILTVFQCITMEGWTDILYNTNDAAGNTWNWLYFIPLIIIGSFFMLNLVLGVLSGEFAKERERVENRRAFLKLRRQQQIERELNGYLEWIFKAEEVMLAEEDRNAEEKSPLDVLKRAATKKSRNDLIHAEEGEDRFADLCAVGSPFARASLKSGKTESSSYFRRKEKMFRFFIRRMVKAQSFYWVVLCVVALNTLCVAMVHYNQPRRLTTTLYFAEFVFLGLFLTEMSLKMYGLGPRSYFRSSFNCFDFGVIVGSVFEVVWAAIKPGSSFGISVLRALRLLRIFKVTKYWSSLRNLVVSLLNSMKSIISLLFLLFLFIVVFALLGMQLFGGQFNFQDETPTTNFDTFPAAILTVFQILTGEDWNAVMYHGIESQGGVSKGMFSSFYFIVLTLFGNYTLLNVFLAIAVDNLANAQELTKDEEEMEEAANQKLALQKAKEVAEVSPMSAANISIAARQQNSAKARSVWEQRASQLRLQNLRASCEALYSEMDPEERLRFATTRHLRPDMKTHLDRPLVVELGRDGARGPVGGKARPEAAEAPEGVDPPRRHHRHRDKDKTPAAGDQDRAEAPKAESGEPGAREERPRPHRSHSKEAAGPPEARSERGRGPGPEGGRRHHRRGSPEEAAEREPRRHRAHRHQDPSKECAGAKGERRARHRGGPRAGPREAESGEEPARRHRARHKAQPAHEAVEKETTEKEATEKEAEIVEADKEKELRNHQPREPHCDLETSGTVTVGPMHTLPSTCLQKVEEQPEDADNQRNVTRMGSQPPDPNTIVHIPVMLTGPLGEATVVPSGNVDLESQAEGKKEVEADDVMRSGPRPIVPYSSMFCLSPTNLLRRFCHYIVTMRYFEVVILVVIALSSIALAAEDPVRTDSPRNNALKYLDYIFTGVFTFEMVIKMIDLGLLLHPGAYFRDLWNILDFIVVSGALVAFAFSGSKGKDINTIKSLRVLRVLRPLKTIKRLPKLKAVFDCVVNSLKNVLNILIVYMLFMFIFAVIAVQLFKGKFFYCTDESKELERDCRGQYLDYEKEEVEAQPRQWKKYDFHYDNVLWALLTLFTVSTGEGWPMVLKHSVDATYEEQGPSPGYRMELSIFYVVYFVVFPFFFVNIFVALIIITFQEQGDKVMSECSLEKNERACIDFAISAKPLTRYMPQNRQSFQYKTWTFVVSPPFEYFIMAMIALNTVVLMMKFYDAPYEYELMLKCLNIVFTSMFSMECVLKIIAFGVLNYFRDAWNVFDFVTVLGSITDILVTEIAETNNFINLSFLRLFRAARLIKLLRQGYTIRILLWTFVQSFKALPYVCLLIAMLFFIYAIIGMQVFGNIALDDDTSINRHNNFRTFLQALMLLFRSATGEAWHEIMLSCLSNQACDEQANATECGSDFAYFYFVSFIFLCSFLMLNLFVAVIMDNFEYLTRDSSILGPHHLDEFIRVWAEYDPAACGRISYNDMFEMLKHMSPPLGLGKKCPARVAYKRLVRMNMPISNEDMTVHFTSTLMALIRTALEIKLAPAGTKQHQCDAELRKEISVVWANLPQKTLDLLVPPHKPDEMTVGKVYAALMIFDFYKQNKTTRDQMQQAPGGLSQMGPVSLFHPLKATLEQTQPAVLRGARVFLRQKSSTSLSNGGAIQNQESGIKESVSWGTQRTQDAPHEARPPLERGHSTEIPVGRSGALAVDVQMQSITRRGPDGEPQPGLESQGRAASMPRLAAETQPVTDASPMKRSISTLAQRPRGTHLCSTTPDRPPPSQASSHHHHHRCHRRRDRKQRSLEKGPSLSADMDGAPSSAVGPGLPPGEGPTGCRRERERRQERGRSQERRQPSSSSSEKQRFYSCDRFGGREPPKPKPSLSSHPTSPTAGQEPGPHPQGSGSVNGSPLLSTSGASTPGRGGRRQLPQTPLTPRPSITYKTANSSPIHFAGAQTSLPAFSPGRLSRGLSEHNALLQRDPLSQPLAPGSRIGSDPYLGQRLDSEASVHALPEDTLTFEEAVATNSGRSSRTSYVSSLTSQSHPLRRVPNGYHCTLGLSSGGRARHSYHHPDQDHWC
T1 sequence (P54284 whole entry partner): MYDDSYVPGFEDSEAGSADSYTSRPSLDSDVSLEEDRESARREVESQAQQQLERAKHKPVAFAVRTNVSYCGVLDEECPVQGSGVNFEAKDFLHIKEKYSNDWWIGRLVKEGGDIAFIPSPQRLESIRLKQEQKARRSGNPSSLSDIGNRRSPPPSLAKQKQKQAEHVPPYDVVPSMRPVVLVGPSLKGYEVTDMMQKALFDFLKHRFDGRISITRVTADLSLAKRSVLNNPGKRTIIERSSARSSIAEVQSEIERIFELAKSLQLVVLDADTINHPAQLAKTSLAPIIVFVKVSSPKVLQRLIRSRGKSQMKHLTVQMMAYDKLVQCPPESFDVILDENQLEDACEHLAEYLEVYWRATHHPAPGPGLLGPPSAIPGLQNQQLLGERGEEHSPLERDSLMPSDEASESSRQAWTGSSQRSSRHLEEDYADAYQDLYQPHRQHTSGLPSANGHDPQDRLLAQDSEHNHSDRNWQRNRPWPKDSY
T1 sequence (P54289 25-946 partner limits assumed): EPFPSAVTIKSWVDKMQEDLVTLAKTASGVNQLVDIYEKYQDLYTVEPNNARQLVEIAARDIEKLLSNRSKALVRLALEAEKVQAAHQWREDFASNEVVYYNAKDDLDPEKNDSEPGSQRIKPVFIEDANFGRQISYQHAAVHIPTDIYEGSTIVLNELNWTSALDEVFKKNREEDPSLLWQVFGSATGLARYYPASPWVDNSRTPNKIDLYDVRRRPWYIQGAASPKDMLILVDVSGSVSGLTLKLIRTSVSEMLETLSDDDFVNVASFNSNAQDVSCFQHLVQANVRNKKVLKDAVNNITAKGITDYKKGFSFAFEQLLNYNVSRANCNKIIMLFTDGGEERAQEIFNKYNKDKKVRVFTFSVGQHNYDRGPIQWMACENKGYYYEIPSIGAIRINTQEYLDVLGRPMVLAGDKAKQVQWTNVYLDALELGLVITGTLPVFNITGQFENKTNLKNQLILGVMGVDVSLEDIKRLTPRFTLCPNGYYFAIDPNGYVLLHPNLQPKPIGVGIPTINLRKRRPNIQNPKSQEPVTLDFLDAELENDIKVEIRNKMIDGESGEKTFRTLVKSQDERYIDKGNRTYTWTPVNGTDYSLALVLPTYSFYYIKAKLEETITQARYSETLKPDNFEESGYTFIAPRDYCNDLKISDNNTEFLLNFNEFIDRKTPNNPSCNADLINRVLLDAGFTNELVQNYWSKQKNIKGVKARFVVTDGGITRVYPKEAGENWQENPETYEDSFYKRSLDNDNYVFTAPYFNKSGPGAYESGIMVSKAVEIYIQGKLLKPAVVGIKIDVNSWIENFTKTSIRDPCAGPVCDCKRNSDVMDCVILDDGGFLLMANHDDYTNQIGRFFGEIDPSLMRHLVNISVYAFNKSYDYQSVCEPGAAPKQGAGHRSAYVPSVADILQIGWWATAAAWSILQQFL
T1 sequence (P54289 947-1103 partner limits assumed): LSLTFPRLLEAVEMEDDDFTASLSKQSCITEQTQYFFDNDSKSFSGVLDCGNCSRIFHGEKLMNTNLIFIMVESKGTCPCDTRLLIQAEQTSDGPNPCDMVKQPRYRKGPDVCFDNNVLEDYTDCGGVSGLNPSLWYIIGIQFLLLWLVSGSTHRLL

## CN[C@@H](CC(C)C)C(=O)N[C@@H](Cc1ccc(OCc2ccccc2)cc1)C(=O)N1CCN(Cc2ccccc2)CC1 (relative stereo) [Example 43, [S-(R*,R*)]-4-Methyl-2-methylamino-pentanoic acid [1-(4-benzyloxy-benzyl)-2-(4-benzyl-piperazin-1-yl)-2-oxo-ethyl]-amide]
5 μM nitrendipine
  IMR 32 % of Blockade @ 1 μM: 51%
  IMR 32 % of Blockade @ 10 μM: 96%

## CC(C)CCNC(C)(C)C(=O)N[C@@H](Cc1ccc(OCc2ccccc2)cc1)C(=O)NC(C)(C)C [Example 104, (S)-N-[2-(4-Benzyloxy-phenyl)-1-tert-butylcarbamoyl-ethyl]-2-(3-methyl-butylamino)-isobutyramide]
[1]
  IC50: 1.3 µM

## CC(C)CCN(C)CC(=O)NC(Cc1ccc(OCc2ccccc2)cc1)C(=O)NC(C)(C)C (stereo not drawn) [Example 102, [S-(R*,R*)]-3-(4-Benzyloxy-phenyl)-N-tert-butyl-2-{2-[methyl-(3-methyl-butyl)-amino]-acetylamino}-propionamide]
[1]
  IC50: 1.6 µM

## CC(C)C[C@@H](C(=O)N[C@@H](Cc1ccc(OCc2ccccc2)cc1)C(=O)NC(C)(C)C)N(C)C (relative stereo) [Example 1, [S-(R*,R*)]-2-Dimethylamino-4-methyl-pentanoic acid [2-(4-benzyloxy-phenyl)-1-tert-butylcarbamoyl-ethyl]-amide]
[1]
  IC50: 2.3 µM

## CC(C)C[C@@H](C(=O)N[C@@H](Cc1ccc(OCc2ccccc2)cc1)C(=O)NC(C)(C)CO)N1CCOCC1 (relative stereo) [Example 123, [S-(R*,R*)]-4-Methyl-2-morpholin-4-yl-pentanoic acid [2-(4-benzyloxy-phenyl)-1-(2-hydroxy-1,1-dimethyl-ethylcarbamoyl)-ethyl]-amide]
[2]
  IC50: 13 µM

## CC(C)C[C@@H](C(=O)N[C@@H](Cc1ccc(OCc2ccccc2)cc1)C(=O)NCCc1ccccn1)N1CCOCC1 (relative stereo) [Example 120, [S-(R*,R*)]-4-Methyl-2-morpholin-4yl-pentanoic acid [2-(4-benzyloxy-phenyl)-1-(2-pyridin-2-yl-ethylcarbamoyl)-ethyl]-amide]
[2]
  IC50: 6 µM

## CC(C)CCN[C@@H](CC(C)C)C(=O)N[C@@H](Cc1ccc(OCc2ccccc2)cc1)C(=O)NC(C)(C)C (relative stereo) [Example 105, [S-(R*,R*)]-4-Methyl-2-(3-methyl-butylamino)-pentanoic acid [2-(4-benzyloxy-phenyl)-1-tert-butylcarbamoyl-ethyl]-amide]
[1]
  IC50: 0.24 µM

## CCN(CCC(C)C)C(CC(C)C)C(=O)NC(Cc1ccc(OCc2ccccc2)cc1)C(=O)NC(C)(C)C (stereo not drawn) [Example 45, [S-(R*,R*)]-4Methyl-2-[ethyl-(3-methyl-butyl)-amino]-pentanoic acid [2-(4-benzyloxy-phenyl)-1-tert-butylcarbamoyl-ethyl]-amide]
0.3 μM, 5 μM nitrendipine
  IMR 32 % of Blockade @ 0.3 μM: 45%
3 μM, 5 μM nitrendipine
  IMR 32 % of Blockade @ 3 μM: 77%

## CC(C)C[C@@H](C(=O)N[C@@H](Cc1ccc(OCc2ccccc2)cc1)C(=O)NCCNCc1ccccc1)N1CCOCC1 (relative stereo) [Example 68, [S-(R*,R*)]-4-Methyl-2-morpholin4-yl-pentanoic acid [1-(2-benzylamino-ethylcarbamoyl)-2-(4-benzyloxy-phenyl)-ethyl]-amide]
[1]
  IC50: 1.1 µM

## CC(C)C[C@@H](C(=O)N[C@@H](Cc1ccc(OCc2ccccc2)cc1)C(=O)N1CCC(O)CC1)N1CCOCC1 (relative stereo) [Example 126, [S-(R*,R*)]4-Methyl-2-morpholin-4-yl-pentanoic acid [2-(4-benzyloxy-phenyl)-1-(4-hydroxypiperidinylcarbamoyl)-ethyl]-amide]
[2]
  IC50: 6.4 µM

## CC(C)CC(C(=O)NC(Cc1ccc(OCc2ccccc2)cc1)C(=O)N1CCN(C)CC1)N(C)CC1CCCCC1 (stereo not drawn) [Example 30, [S-(R*,R*)]-2-(Cyclohexylmethyl-methyl-amino)-4-methyl-pentanoic acid [1-(4-benzyloxy-benzyl)-2-(4-methyl-piperazin-1-yl)-2-oxo-ethyl]-amide]
[1]
  IC50: 1.2 µM

## COc1ccc(CN(C)[C@@H](CC(C)C)C(=O)N[C@@H](Cc2ccc(OCc3ccccc3)cc2)C(=O)NC(C)(C)C)cc1 (relative stereo) [Example 98, [S-(R*,R*)]-2-[(4-Methoxy-benzyl)-methyl-amino]-4-methyl-pentanoic acid [2-(4-benzyloxy-phenyl)-1-tert-butylcarbamoyl-ethyl]-amide]
[1]
  IC50: 0.4 µM

## [S-(R*,R*)]-4-Methyl-2-(tetrahydropyran-4-yl-amino)-pentanoic acid [2-(4-benzyloxy-phenyl)-1-(4-hydroxy-piperinylcarbamoyl]-amide [Example 131]
[2]
  IC50: 10 µM

## CCC(CO)(CO)NC(=O)[C@H](Cc1ccc(OCc2ccccc2)cc1)NC(=O)[C@H](CC(C)C)N1CCOCC1 (relative stereo) [Example 124, [S-(R*,R*)]-4-Methyl-2-morpholin-4-yl-pentanoic acid [2-(4-benzyloxy-phenyl)-1-(1,1-bis-hydroxymethyl-propyl-carbamoyl)-ethyl]-amide]
[2]
  IC50: 7.2 µM

## CC(C)C[C@@H](C(=O)N[C@@H](Cc1ccc(OCc2ccccc2)cc1)C(=O)N1CCCCC1)N(C)C (relative stereo) [Example 2, [S-(R*,R*)]-2-Dimethylamino-4-methyl-pentanoic acid [2-(4-benzyloxy-phenyl)-1-(piperidine-1-carbonyl)-ethyl]-amide]
5 μM nitrendipine
  IMR 32 % of Blockade @ 1 μM: 36%
  IMR 32 % of Blockade @ 10 μM: 92%

## CC(C)C[C@@H](C(=O)N[C@@H](Cc1ccc(OCc2ccccc2)cc1)C(=O)N1CCN(C)CC1)N(C)Cc1ccc(C(C)(C)C)cc1 (relative stereo) [Example 18, [S-(R*,R*)]-2-[(4-tert-Butyl-benzyl)-methyl-amino]-4-methyl-pentanoic acid [1-(4-benzyloxy-benzyl)-2-(4-methyl-piperazin-1-yl)-2-oxo-ethyl]-amide]
5 μM nitrendipine
  IMR 32 % of Blockade @ 1 μM: 52%
  IMR 32 % of Blockade @ 10 μM: 95%

## CC(C)C[C@@H](C(=O)N[C@@H](Cc1ccc(OCc2ccccc2)cc1)C(=O)NC(C)(C)C)N(C)C1CCC(C)CC1 (relative stereo) [Example 39, [S-(R*,R*)]-4-Methyl-2-[methyl-(4-methyl-cyclohexyl)-amino]-pentanoic acid [2-(4-benzyloxy-phenyl)-1-tert-butylcarbamoyl-ethyl]-amide]
[1]
  IC50: 0.39 µM

## CC(C)CC(C(=O)NC(Cc1ccc(OCc2ccccc2)cc1)C(=O)NCCNCCO)N(C)C (stereo not drawn) [Example 140, [S-(R*,R*)]-2-Dimethylamino-4-methyl-pentanoic acid {2-(4-benzyloxy-phenyl)-1-[2-(2-hydroxy-ethylamino)-ethylcarbamoyl]-ethyl}-amide]
[2]
  IC50: 5.1 µM

## CC(C)C[C@@H](C(=O)N[C@@H](Cc1ccc(OCc2ccccc2)cc1)C(=O)NC(C)(C)C)N(C)C(C)CO (mixture of isomers) [Example 88, [S-[R*,R*,(RS)]]-2-[(2-Hydroxy-1-methyl-ethyl)-methyl-amino]-4-methyl-pentanoic acid [2-(4-benzyloxy-phenyl)-1-tert-butylcarbamoyl-ethyl]-amide]
5 μM nitrendipine
  IMR 32 % of Blockade @ 1 μM: 30%

## CC(C)C[C@@H](C(=O)N[C@@H](Cc1ccc(OCc2ccccc2)cc1)C(=O)N1CCCCC1)N(C)Cc1ccc(C(C)(C)C)cc1 (relative stereo) [Example 14, [S-(R*,R*)]-2-[(4-tert-Butyl-benzyl)-methyl-amino]-4-methyl-pentanoic acid [2-(4-benzyloxy-phenyl)-1-(piperidine-1-carbonyl)-ethyl]-amide]
5 μM nitrendipine
  IMR 32 % of Blockade @ 1 μM: 80%
  IMR 32 % of Blockade @ 10 μM: 85%

## CC(C)CC(C(=O)NC(Cc1ccc(OCc2ccccc2)cc1)C(=O)N1CCCCC1)N1CCOCC1 (stereo not drawn) [Example 70, [S-(R*,R*)]-4-Methyl-2-morpholin-4-yl-pentanoic acid [1-(4-benzyloxy-benzyl)-2-oxo-2-piperidin-1-yl-ethyl]-amide]
[1]
  IC50: 2.3 µM
